One may read the Kd as the equilibrium constant for the complex coming apart.

Experimental findings from article PMC6707612, “Cyclic-di-GMP binds to histidine kinase RavS to control RavS-RavR phosphotransfer and regulates the bacterial lifestyle transition between virulence and swimming” (PLoS Pathogens, 2019) are described below.

Each structure is given as a SMILES string. Values joined by “and” are separate entries in the source; they are usually repeats but may differ in a detail not shown here. Equal entries are not always repeated.

For assay [1], the target named is T1, RavR^ΔEAL (Xanthomonas campestris pv. campestris, UniProt Q8P9A7).
T1 sequence (Q8P9A7 with tags, fused parts or gaps): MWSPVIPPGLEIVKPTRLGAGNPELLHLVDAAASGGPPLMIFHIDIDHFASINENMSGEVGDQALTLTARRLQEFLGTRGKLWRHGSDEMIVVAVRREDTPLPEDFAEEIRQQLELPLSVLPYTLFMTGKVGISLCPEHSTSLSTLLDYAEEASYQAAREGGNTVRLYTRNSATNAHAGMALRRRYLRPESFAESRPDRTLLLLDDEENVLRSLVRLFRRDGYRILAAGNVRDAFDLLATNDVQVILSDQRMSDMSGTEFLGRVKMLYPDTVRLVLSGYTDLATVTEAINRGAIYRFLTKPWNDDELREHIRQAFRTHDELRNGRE
The assay is described as follows: microscale thermophoresis (MST) binding. The settings on record: 20 nM fluorescein-labelled nucleotide, read-out: dissociation constant (Kd). (MST reads how a fluorescent partner responds to local heating, with and without ligand.)

In assay [2] the target is T2, RavS^ΔTrM (Xanthomonas campestris pv. campestris, UniProt Q8P9A6).
T2 sequence (Q8P9A6 47-697): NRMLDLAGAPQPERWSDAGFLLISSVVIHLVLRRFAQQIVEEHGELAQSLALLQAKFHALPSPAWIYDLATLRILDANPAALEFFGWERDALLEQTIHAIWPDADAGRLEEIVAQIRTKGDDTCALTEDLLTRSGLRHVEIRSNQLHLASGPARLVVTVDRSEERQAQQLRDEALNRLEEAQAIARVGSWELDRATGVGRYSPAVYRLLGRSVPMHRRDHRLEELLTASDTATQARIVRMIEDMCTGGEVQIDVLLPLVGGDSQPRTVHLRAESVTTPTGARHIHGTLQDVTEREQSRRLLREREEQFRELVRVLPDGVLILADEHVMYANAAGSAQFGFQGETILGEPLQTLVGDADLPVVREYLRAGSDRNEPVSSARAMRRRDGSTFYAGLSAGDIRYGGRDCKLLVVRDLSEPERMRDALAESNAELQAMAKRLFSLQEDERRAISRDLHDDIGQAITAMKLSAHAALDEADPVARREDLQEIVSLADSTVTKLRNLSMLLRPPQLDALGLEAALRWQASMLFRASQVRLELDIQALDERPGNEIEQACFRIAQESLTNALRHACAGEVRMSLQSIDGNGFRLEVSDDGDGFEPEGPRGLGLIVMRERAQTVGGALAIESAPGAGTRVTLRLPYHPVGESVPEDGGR
Kind of assay: microscale thermophoresis (MST) binding. The settings on record: 20 nM fluorescein-labelled nucleotide, read-out: dissociation constant (Kd). As for the experimental part:
(a) c-di-GMP enhances RavS-RavR phosphotransfer in vitro. A total of 5 μM RavS^ΔN was autophosphorylated for 15 min by the addition of 10 μCi [γ-^32P]ATP. A total of 15 μM RavR^ΔEAL or RavR^ΔEAL(D496A) was added and incubated for 30 min at 25°C. A total of 100 μM c-di-GMP was added if necessary. The reactions were terminated with 5× SDS loading buffer before autoradiography. The experiment was repeated three times. (b) Time course analyses of the impact of c-di-GMP on the velocity of RavS-RavR phosphotransfer. The autophosphorylation and phosphotransfer reactions were set as mentioned in (a). Various concentrations of c-di-GMP were added to the reactions and isotopic signals (band intensities) of RavS~P were measured after autoradiography. (c–d) c-di-GMP triggered an increase in RavS-RavR phosphotransfer in a dose-dependent manner. (c) Various concentrations of c-di-GMP (0, 5, 10, 15, 30, 50, 75 and 100 μM) were added to the RavS-RavR phosphotransfer reactions. (d) The phosphorylated level of RavS^ΔN~P was quantified by ImageJ and the EC50 value was estimated by Origin 8.5 software. In (b) and (d), the intensity of each data point is the average from three experimental repeats. (e) c-di-GMP triggered increase in RavS-RavR phosphotransfer is highly specific. […] The interaction between RavS^ΔTrM and various nucleotides, including fl-c-di-GMP, fl-cGMP and fl-c-di-AMP, were measured by microscale thermophoresis (MST). A total of 20 nM fluorescein-labelled nucleotides and increasing concentrations of proteins were incubated and measured by MST. The dissociation constant (Kd) was quantified to estimate the binding affinity. […]
The interaction between c-di-GMP nucleotides and various proteins was measured by using MST with a fluorescein-labelled c-di-GMP (2′-Fluo-AHC-c-di-GMP, abbreviated as fl-c-di-GMP; 2′-Fluo-AHC-c-di-AMP, fl-c-di-AMP; 2′-Fluo-AHC-cGMP, fl-cGMP; Biolog, Germany). These chemicals contain carboxyfluorescein that has excitation and emission wavelengths of 497 nm and 520 nm, respectively, which can be detected directly by a MST instrument. […]

In the case of `Nc1nc2c(ncn2[C@@H]2O[C@@H]3COP(=O)(O)O[C@H]4[C@@H](OC(=O)NCCCCCCNC(=O)c5ccc6c(c5)C(=O)OC65c6ccc(O)cc6Oc6cc(O)ccc65)[C@H](n5cnc6c(=O)[nH]c(N)nc65)O[C@@H]4COP(=O)(O)O[C@H]3[C@H]2O)c(=O)[nH]1` [fl-c-di-GMP, 2′-Fluo-AHC-c-di-GMP], the Kd was 111 µM and > 80 µM in assay [1]; 6.06 ± 0.92 µM in assay [2].
